Experimental data reported in ChEMBL document CHEMBL4507275, “Data for DCP probe BI-2545” (2021).

Columns and labels:
[1] = biological target: Serine/threonine-protein kinase WNK4 (Homo sapiens) (UniProt Q96J92); settings: Compound concentration 1000.0 nM
[2] = biological target: Mitogen-activated protein kinase kinase kinase 4 (Homo sapiens) (UniProt Q9Y6R4); settings: Compound concentration 1000.0 nM
[3] = biological target: LIM domain kinase 2 (Homo sapiens) (UniProt P53671); settings: Compound concentration 1000.0 nM
[4] = biological target: Inhibitor of nuclear factor kappa-B kinase subunit epsilon (Homo sapiens) (UniProt Q14164); settings: Compound concentration 1000.0 nM
[5] = biological target: Calcium/calmodulin-dependent protein kinase type 1G (Homo sapiens) (UniProt Q96NX5); settings: Compound concentration 1000.0 nM
[6] = biological target: Histamine H1 receptor (Homo sapiens) (UniProt P35367); settings: Compound concentration 10.0 uM
[7] = test system: Tyrosine-protein kinase ABL1 (Homo sapiens), P00519 [F317L]; settings: Compound concentration 1000.0 nM
[8] = biological target: Serine/threonine-protein kinase 32B (Homo sapiens) (UniProt Q9NY57); settings: Compound concentration 1000.0 nM
[9] = test system: Tyrosine-protein kinase ABL1 (Homo sapiens), P00519 [F317L]; settings: Compound concentration 1000.0 nM; remark: listed apart in the source
[10] = biological target: Serine/threonine-protein kinase TAO3 (Homo sapiens) (UniProt Q9H2K8); settings: Compound concentration 1000.0 nM
[11] = biological target: Atypical kinase COQ8B, mitochondrial (Homo sapiens) (UniProt Q96D53); settings: Compound concentration 1000.0 nM
[12] = biological target: SRSF protein kinase 2 (Homo sapiens) (UniProt P78362); settings: Compound concentration 1000.0 nM
[13] = biological target: Homeodomain-interacting protein kinase 2 (Homo sapiens) (UniProt Q9H2X6); settings: Compound concentration 1000.0 nM
[14] = test system: Receptor-type tyrosine-protein kinase FLT3 (Homo sapiens), P36888 [UNDEFINED MUTATION]; settings: Compound concentration 1000.0 nM
[15] = test system: Phosphatidylinositol 4,5-bisphosphate 3-kinase catalytic subunit alpha isoform (Homo sapiens), P42336 [E545K]; settings: Compound concentration 1000.0 nM
[16] = biological target: Protein kinase C delta type (Homo sapiens) (UniProt Q05655); settings: Compound concentration 1000.0 nM
[17] = biological target: Serine/threonine-protein kinase MARK2 (Homo sapiens) (UniProt Q7KZI7); settings: Compound concentration 1000.0 nM
[18] = biological target: Proto-oncogene tyrosine-protein kinase ROS (Homo sapiens) (UniProt P08922); settings: Compound concentration 1000.0 nM
[19] = biological target: Serine/threonine-protein kinase N1 (Homo sapiens) (UniProt Q16512); settings: Compound concentration 1000.0 nM
[20] = biological target: Muscle, skeletal receptor tyrosine-protein kinase (Homo sapiens) (UniProt O15146); settings: Compound concentration 1000.0 nM
[21] = biological target: Serine/threonine-protein kinase TAO2 (Homo sapiens) (UniProt Q9UL54); settings: Compound concentration 1000.0 nM
[22] = biological target: Dual specificity protein kinase CLK3 (Homo sapiens) (UniProt P49761); settings: Compound concentration 1000.0 nM
[23] = biological target: Myosin light chain kinase, smooth muscle (Homo sapiens) (UniProt Q15746); settings: Compound concentration 1000.0 nM
[24] = biological target: Tyrosine-protein kinase BTK (Homo sapiens) (UniProt Q06187); settings: Compound concentration 1000.0 nM
[25] = biological target: Tyrosine-protein kinase Lck (Homo sapiens) (UniProt P06239); settings: Compound concentration 1000.0 nM
[26] = test system: Tyrosine-protein kinase ABL1 (Homo sapiens), P00519 [H396P]; settings: Compound concentration 1000.0 nM
[27] = biological target: Mitogen-activated protein kinase kinase kinase 15 (Homo sapiens) (UniProt Q6ZN16); settings: Compound concentration 1000.0 nM
[28] = biological target: Mitogen-activated protein kinase kinase kinase 1 (Homo sapiens) (UniProt Q13233); settings: Compound concentration 1000.0 nM
[29] = biological target: Leucine-rich repeat serine/threonine-protein kinase 2 (Homo sapiens) (UniProt Q5S007); settings: Compound concentration 1000.0 nM
[30] = biological target: Serine/threonine-protein kinase NLK (Homo sapiens) (UniProt Q9UBE8); settings: Compound concentration 1000.0 nM
[31] = biological target: Dual specificity mitogen-activated protein kinase kinase 4 (Homo sapiens) (UniProt P45985); settings: Compound concentration 1000.0 nM
[32] = biological target: Discoidin domain-containing receptor 2 (Homo sapiens) (UniProt Q16832); settings: Compound concentration 1000.0 nM
[33] = biological target: Mitogen-activated protein kinase 3 (Homo sapiens) (UniProt P27361); settings: Compound concentration 1000.0 nM
[34] = biological target: Mitogen-activated protein kinase 12 (Homo sapiens) (UniProt P53778); settings: Compound concentration 1000.0 nM
[35] = biological target: Sodium-dependent serotonin transporter (Homo sapiens) (UniProt P31645); settings: Compound concentration 10.0 uM
[36] = biological target: Mitogen-activated protein kinase 9 (Homo sapiens) (UniProt P45984); settings: Compound concentration 1000.0 nM
[37] = biological target: Serine/threonine-protein kinase Nek9 (Homo sapiens) (UniProt Q8TD19); settings: Compound concentration 1000.0 nM
[38] = biological target: Wee1-like protein kinase (Homo sapiens) (UniProt P30291); settings: Compound concentration 1000.0 nM
[39] = biological target: Activin receptor type-2A (Homo sapiens) (UniProt P27037); settings: Compound concentration 1000.0 nM
[40] = biological target: Serine/threonine-protein kinase BRSK2 (Homo sapiens) (UniProt Q8IWQ3); settings: Compound concentration 1000.0 nM
[41] = biological target: BMP-2-inducible protein kinase (Homo sapiens) (UniProt Q9NSY1); settings: Compound concentration 1000.0 nM
[42] = biological target: Tyrosine-protein kinase Fyn (Homo sapiens) (UniProt P06241); settings: Compound concentration 1000.0 nM
[43] = biological target: Dual specificity mitogen-activated protein kinase kinase 2 (Homo sapiens) (UniProt P36507); settings: Compound concentration 1000.0 nM
[44] = test system: Phosphatidylinositol 4,5-bisphosphate 3-kinase catalytic subunit alpha isoform (Homo sapiens), P42336 [E545A]; settings: Compound concentration 1000.0 nM
[45] = biological target: Serine/threonine-protein kinase PLK3 (Homo sapiens) (UniProt Q9H4B4); settings: Compound concentration 1000.0 nM

Phosphatidylinositol 4,5-bisphosphate 3-kinase catalytic subunit alpha isoform (Homo sapiens), P42336 [E545A], sequence (P42336 whole entry E545A, canonical isoform): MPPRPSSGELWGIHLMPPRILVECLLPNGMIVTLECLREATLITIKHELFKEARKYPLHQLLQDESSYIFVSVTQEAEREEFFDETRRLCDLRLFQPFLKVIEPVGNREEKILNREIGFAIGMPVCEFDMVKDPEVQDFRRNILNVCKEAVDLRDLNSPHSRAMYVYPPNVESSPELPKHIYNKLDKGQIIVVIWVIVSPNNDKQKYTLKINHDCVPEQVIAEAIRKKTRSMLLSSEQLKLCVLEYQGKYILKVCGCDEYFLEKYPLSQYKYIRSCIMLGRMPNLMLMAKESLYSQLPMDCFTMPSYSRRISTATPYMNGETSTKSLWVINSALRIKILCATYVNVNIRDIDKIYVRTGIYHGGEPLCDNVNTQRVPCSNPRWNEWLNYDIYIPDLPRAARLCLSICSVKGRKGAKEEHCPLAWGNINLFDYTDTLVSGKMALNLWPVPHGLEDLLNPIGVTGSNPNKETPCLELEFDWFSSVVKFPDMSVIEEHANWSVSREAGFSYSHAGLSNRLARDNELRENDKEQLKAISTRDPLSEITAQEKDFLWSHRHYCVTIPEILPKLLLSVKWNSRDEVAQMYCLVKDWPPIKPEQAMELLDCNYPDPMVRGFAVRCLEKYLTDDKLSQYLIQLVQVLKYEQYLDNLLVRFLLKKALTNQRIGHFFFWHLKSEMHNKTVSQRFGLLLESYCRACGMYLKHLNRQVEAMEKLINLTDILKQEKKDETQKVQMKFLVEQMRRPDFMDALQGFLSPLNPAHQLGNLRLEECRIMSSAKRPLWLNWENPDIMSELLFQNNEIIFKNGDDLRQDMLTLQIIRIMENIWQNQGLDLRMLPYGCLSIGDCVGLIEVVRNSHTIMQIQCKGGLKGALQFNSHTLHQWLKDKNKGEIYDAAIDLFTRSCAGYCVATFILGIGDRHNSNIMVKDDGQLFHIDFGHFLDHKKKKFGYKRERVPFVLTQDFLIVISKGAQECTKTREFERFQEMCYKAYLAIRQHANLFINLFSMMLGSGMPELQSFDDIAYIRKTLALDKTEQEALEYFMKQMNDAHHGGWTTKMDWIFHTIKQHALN
Tyrosine-protein kinase BTK (Homo sapiens), sequence (Q06187 whole entry): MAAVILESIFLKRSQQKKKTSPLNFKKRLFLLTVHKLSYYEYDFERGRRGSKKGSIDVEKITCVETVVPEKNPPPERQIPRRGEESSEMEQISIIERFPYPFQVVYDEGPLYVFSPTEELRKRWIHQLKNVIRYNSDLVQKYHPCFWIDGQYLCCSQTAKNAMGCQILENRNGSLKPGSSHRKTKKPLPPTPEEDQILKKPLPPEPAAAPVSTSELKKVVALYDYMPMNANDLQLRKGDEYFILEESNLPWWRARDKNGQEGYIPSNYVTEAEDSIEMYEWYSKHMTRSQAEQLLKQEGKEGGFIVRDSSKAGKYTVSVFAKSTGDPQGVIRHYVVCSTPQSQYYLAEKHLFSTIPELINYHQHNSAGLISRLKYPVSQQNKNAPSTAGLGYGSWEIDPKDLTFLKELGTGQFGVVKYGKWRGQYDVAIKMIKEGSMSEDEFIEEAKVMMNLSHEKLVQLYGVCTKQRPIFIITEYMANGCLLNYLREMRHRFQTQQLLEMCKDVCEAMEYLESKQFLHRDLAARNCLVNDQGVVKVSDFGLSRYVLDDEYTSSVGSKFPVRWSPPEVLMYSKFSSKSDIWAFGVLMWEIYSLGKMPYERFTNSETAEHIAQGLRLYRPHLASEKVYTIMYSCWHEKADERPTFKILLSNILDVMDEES
Calcium/calmodulin-dependent protein kinase type 1G (Homo sapiens), sequence (Q96NX5 whole entry): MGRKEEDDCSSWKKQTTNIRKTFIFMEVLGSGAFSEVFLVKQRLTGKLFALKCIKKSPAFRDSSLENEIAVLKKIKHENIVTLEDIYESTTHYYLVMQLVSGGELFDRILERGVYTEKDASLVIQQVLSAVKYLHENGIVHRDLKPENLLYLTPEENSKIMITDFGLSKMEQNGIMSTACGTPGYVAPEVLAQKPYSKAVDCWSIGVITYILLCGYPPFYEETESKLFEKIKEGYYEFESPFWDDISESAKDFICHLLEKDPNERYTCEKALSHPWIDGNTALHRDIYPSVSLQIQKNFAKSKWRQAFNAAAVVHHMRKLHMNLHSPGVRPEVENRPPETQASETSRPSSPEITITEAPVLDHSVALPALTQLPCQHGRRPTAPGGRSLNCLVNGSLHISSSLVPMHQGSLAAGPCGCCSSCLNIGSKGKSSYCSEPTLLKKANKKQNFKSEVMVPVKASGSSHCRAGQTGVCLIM
Serine/threonine-protein kinase NLK (Homo sapiens), sequence (Q9UBE8 whole entry): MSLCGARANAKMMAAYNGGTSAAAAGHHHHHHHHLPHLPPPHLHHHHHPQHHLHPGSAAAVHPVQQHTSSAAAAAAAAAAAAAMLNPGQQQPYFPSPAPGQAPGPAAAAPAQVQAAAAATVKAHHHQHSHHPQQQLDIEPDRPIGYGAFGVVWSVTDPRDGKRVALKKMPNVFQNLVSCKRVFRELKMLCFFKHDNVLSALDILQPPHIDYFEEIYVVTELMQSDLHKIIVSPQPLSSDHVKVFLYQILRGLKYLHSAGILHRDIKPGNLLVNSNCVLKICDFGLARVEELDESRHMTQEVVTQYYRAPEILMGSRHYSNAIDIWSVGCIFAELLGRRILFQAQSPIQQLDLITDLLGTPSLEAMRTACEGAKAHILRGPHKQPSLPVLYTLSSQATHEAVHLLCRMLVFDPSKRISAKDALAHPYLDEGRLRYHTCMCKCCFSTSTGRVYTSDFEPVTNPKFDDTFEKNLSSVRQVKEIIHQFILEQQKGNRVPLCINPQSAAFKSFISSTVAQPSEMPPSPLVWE
Dual specificity mitogen-activated protein kinase kinase 2 (Homo sapiens), sequence (P36507 whole entry, canonical isoform): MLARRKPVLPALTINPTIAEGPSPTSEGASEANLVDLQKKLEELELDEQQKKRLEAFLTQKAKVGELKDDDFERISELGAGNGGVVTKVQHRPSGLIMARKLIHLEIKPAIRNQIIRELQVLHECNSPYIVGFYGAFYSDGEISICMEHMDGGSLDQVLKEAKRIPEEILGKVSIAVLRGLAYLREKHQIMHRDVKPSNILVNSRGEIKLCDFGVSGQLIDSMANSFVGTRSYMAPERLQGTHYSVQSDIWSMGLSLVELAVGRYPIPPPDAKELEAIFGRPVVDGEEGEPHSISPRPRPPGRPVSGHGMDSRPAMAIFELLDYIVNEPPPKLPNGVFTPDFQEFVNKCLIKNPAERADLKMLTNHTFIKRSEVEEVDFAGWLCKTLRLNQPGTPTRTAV
Tyrosine-protein kinase Lck (Homo sapiens), sequence (P06239 2-509 limits assumed): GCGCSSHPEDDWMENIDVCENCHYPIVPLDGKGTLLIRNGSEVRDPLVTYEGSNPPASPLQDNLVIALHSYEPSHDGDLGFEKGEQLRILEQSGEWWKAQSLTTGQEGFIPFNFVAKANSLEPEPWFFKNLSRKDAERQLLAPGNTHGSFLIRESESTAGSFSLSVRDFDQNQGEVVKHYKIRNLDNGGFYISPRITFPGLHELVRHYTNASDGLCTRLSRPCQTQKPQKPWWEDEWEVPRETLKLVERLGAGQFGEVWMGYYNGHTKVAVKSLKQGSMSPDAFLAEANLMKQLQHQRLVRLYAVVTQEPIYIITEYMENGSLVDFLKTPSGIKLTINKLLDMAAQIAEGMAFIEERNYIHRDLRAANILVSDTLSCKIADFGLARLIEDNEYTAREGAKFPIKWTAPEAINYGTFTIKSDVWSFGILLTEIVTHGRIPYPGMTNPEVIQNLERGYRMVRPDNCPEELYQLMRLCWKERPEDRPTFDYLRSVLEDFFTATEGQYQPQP
Mitogen-activated protein kinase 3 (Homo sapiens), sequence (P27361 whole entry): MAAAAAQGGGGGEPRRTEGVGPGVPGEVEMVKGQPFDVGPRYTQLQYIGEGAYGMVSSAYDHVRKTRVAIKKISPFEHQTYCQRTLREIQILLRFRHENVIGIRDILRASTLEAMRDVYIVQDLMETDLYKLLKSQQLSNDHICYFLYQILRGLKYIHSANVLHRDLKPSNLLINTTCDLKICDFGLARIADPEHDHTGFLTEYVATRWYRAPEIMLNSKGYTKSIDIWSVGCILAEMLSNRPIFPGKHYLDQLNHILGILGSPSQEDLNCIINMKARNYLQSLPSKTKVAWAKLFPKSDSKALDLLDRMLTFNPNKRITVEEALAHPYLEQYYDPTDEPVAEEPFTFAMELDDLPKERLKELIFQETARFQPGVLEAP
Histamine H1 receptor (Homo sapiens), sequence (P35367 whole entry): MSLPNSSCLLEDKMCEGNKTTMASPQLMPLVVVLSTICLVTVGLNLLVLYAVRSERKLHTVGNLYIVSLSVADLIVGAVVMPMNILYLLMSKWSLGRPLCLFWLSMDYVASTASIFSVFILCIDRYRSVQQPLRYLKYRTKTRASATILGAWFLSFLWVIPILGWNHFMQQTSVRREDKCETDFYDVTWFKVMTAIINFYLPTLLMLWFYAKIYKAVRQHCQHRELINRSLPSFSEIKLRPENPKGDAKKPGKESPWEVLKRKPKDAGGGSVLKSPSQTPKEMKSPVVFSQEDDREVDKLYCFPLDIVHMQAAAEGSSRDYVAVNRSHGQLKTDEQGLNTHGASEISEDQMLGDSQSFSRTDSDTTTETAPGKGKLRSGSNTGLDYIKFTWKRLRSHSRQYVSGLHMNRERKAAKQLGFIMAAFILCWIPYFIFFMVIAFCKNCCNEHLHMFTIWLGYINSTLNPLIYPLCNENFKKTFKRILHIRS
Dual specificity protein kinase CLK3 (Homo sapiens), sequence (P49761 whole entry, looked up): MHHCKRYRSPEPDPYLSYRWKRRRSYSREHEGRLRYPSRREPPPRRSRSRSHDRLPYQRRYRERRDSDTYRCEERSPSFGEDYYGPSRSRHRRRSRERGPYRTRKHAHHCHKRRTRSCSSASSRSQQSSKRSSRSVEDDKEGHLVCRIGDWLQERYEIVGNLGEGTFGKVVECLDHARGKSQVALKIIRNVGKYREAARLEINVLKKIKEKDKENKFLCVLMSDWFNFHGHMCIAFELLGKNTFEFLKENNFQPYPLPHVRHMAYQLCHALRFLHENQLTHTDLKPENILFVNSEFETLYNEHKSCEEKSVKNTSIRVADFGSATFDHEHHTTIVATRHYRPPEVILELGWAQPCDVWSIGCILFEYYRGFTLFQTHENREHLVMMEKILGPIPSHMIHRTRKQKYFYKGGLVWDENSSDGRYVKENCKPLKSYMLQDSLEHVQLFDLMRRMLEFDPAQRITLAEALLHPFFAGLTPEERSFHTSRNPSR

O=C(NC[C@@H]1[C@H]2CN(C(=O)OCc3cc(C(F)(F)F)cc(C(F)(F)F)c3)C[C@@H]12)c1ccc2[nH]nnc2c1 [BI 2545]
inactive: residual activity [1] 89% | residual activity [2] 91% | residual activity [3] 83% | residual activity [4] 100% | residual activity [5] 100% | inhibition [6] 12.8% | residual activity [7] 88% | residual activity [8] 100% | residual activity [9] 91% | residual activity [10] 88% | residual activity [11] 94% | residual activity [12] 100% | residual activity [13] 100% | residual activity [14] 85% | residual activity [15] 100% | residual activity [16] 93% | residual activity [17] 89% | residual activity [18] 100% | residual activity [19] 100% | residual activity [20] 77% | residual activity [21] 86% | residual activity [22] 78% | residual activity [23] 88% | residual activity [24] 100% | residual activity [25] 100% | residual activity [26] 84% | residual activity [27] 53% | residual activity [28] 71% | residual activity [29] 91% | residual activity [30] 100% | residual activity [31] 95% | residual activity [32] 82% | residual activity [33] 100% | residual activity [34] 100% | inhibition [35] -9.34% | residual activity [36] 100% | residual activity [37] 77% | residual activity [38] 100% | residual activity [39] 92% | residual activity [40] 96% | residual activity [41] 85% | residual activity [42] 85% | residual activity [43] 84% | residual activity [44] 96% | residual activity [45] 89%

Cc1nccc(COC(=O)N2C[C@@H]3[C@@H](CNC(=O)c4ccc5[nH]nnc5c4)[C@@H]3C2)n1 [BI 3017]
active: residual activity [30] 41%
inactive: residual activity [1] 100% | residual activity [2] 94% | residual activity [3] 92% | residual activity [4] 100% | residual activity [5] 100% | inhibition [6] 18.1% | residual activity [7] 90% | residual activity [8] 97% | residual activity [9] 70% | residual activity [10] 83% | residual activity [11] 100% | residual activity [12] 77% | residual activity [13] 81% | residual activity [14] 100% | residual activity [15] 86% | residual activity [16] 95% | residual activity [17] 97% | residual activity [18] 100% | residual activity [19] 100% | residual activity [20] 100% | residual activity [21] 91% | residual activity [22] 90% | residual activity [23] 100% | residual activity [24] 99% | residual activity [25] 94% | residual activity [26] 93% | residual activity [27] 95% | residual activity [28] 85% | residual activity [29] 100% | residual activity [31] 100% | residual activity [32] 77% | residual activity [33] 92% | residual activity [34] 79% | inhibition [35] -3.25% | residual activity [36] 95% | residual activity [37] 100% | residual activity [38] 100% | residual activity [39] 69% | residual activity [40] 86% | residual activity [41] 100% | residual activity [42] 100% | residual activity [43] 84% | residual activity [44] 87% | residual activity [45] 73%
